In ChEMBL document CHEMBL1165965, “Synthesis and structure-activity relationships of 1,2,3,4-tetrahydropyrido[2,3-b]pyrazines as potent and selective inhibitors of the anaplastic lymphoma kinase” (Bioorg Med Chem, 2010):

Experiments:
[1] = target: T1, Rhodopsin kinase GRK1 (Homo sapiens) (UniProt Q15835); assay: Inhibition of GRK1 at 1 uM
T1 sequence (whole entry): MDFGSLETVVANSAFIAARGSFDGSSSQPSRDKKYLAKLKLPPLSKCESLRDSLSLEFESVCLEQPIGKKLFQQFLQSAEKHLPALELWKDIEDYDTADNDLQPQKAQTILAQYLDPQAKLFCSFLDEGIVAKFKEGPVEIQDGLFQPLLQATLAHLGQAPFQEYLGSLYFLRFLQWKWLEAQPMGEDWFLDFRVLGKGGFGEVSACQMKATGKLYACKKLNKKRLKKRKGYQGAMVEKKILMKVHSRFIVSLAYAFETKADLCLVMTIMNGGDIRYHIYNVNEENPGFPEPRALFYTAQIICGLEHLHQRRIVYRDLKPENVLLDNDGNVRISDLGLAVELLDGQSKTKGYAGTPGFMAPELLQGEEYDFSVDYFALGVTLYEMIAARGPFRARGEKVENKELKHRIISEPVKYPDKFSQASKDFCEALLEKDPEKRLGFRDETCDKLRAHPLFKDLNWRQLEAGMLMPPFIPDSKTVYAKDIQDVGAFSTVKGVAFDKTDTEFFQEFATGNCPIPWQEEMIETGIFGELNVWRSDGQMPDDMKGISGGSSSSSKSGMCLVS

[2] = target: T2, NUAK family SNF1-like kinase 2 (Homo sapiens) (UniProt Q9H093); assay: Inhibition of SNARK at 1 uM
T2 sequence (whole entry): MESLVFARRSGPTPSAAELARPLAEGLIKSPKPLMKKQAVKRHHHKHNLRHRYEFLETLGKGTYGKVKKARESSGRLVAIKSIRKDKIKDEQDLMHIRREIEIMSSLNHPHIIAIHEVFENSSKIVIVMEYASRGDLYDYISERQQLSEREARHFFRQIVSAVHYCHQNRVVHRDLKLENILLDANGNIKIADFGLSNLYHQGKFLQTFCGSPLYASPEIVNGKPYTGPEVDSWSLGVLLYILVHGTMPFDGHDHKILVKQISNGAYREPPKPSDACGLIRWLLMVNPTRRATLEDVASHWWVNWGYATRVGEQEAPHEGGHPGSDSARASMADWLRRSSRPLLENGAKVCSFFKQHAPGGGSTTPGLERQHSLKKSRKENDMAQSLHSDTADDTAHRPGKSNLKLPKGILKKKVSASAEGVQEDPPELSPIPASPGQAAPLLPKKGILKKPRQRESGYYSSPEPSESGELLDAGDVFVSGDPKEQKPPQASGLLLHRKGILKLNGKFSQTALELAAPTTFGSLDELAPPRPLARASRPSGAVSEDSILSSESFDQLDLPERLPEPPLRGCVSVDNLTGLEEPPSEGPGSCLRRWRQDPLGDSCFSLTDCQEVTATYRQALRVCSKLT

[3] = target: T3, Phosphatidylinositol 3-kinase C2 domain-containing subunit gamma (Homo sapiens) (UniProt O75747); assay: Inhibition of PIK3C2G at 1 uM
T3 sequence (whole entry): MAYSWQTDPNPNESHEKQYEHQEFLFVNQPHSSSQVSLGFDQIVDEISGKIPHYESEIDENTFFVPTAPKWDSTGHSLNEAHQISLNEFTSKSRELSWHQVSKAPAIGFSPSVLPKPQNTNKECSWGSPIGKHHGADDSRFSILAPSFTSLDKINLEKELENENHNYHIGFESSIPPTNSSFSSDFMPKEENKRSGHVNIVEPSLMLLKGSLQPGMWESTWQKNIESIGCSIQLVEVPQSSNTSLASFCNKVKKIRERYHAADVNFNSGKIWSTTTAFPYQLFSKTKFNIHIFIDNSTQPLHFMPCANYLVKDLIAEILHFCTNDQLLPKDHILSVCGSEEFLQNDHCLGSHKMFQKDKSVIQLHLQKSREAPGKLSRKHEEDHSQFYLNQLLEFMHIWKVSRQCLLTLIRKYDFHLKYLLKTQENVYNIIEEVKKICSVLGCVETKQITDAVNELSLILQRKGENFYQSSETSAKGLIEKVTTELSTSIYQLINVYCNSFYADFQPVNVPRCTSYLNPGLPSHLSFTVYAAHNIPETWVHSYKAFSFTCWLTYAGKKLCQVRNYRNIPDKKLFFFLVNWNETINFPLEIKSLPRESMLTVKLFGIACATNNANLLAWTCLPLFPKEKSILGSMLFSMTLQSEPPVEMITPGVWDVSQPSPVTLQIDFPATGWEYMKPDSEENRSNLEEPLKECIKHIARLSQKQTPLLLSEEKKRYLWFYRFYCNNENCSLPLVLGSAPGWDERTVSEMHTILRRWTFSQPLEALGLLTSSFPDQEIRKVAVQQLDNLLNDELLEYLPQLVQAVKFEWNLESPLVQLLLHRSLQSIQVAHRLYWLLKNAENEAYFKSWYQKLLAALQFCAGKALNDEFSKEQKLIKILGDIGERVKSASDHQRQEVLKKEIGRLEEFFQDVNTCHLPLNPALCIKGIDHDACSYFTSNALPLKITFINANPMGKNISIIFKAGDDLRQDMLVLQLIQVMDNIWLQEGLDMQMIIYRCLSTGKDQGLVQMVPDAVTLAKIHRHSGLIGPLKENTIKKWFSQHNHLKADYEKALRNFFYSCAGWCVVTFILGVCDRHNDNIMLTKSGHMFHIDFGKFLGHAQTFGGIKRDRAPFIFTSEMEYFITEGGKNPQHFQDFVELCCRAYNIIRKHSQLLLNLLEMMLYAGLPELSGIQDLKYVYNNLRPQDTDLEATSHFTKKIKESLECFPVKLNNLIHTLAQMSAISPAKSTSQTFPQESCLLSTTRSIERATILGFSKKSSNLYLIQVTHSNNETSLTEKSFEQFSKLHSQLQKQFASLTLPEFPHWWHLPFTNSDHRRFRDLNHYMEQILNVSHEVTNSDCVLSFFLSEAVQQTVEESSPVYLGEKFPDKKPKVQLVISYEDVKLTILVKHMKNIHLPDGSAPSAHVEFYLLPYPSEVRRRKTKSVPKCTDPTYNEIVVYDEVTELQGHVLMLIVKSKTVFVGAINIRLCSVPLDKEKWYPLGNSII

Structure (SMILES)	inhibition [1] [%]	inhibition [2] [%]	inhibition [3] [%]
CN1CCN(c2ccc(-c3cnc4c(c3)N(Cc3cc(F)ccc3F)CCN4)cn2)CC1	< 50	90	< 50
CN1CCN(c2ccc(-c3cnc4c(c3)N(Cc3c(F)ccc(F)c3Cl)CCN4)cn2)CC1	< 50	90	< 50
CC(=O)N1CCN(c2cc(-c3cnc4c(c3)N(Cc3cc(Cl)ccc3C(F)(F)F)CCN4)ccn2)CC1	< 50	71	< 50
FC(F)(F)c1ccc(Cl)cc1CN1CCNc2ncc(-c3ccnc(N4CCNCC4)c3)cc21	< 50	93	< 50
CN1CCN(c2ccc(-c3cnc4c(c3)N(Cc3cc(Cl)ccc3C(F)(F)F)CCN4)cn2)CC1	< 50	85	< 50
CN1CCN(c2ccc(-c3cnc4c(c3)N(Cc3cc(Cl)ccc3Cl)CCN4)cn2)CC1	< 50	81	< 50
